Data as given in patent publication US20240207258A1, “HETEROCYCLIC PDK1 INHIBITORS FOR USE TO TREAT CANCER” (Viracta Therapeutics, Inc., priority 2015, published 2024).

Assays:
[1] = test system: hematologic tumor cell lines; experiment: MTS cell proliferation assay, panel of hematologic cancer cell lines; assay type: cell-based
Method: (§1) Cell proliferation was measured using the CellTiter 96 Aqueous Non-Radioactive Cell Proliferation Assay (Promega). The CellTiter 96® AQueous Assay is composed of solutions of a tetrazolium compound [3-(4,5-dimethylthiazol-2-yl)-5-(3-carboxymethoxyphenyl)-2-(4-sulfophenyl)-2H-tetrazolium, inner salt; MTS] and an electron coupling reagent (phenazine methosulfate) PMS. MTS is bioreduced by cells into a formazan product that is soluble in tissue culture medium. The absorbance of the formazan product at 490 nm can be measured directly from assay plates without additional processing. The quantity of formazan product as measured by the amount of 490 nm absorbance is directly proportional to the number of living cells in culture. Cells were seeded into 96-well or 384-well clear plates in a volume of 200 μL (96-well) or 50 μL (384-well) at optimized densities ranging from 1,000 to 40,000 cells per well for 96-well plates or 1,200 to 25,000 cells per well for 384-well plates depending on cell-line. After 4-6 hr recovery, serially diluted compounds in DMSO were added to the cells using (0.1% v/v final DMSO concentration). Cells were then grown at 37° C. in a humidified incubator with 5% CO2 for 72 hr. A 20:1 [3-(4,5-dimethylthiazol-2-yl)-5-(3-carboxymethoxyphenyl)-2-(4-sulfophenyl)-2H-tetrazolium](MTS):phenazine methosulfate (PMS) solution in DPBS was made immediately before use, added to each well, and cells were incubated for 1.5 hr at 37° C. The absorbance at 490 nm was then measured using a platereader. Absorbance values were normalized as percent of control (cells incubated in the presence of 0.1% v/v DMSO). Sigmoidal dose-response curves were plotted using log(inhibitor) vs. response—Variable slope (four parameters) model with a top value constrained to 100% (GraphPad Prism version 6.00 for Windows, GraphPad Software, La Jolla California USA). […] Curves for compounds that reached a plateau were matched exactly to the measurement points. […] To determine potential of compounds of the invention to affect viability of hematological cancers, cell lines representing various tumor types were selected and tested. Human cell lines tested were: MOLM-13 (acute myeloid leukemia (AML)), MV4-11 (AML), U-2932 (ABC-diffuse large B cell lymphoma), U-937 (histiocytic lymphoma), U-266 (multiple myeloma), RPMI-8226 (multiple myeloma), CMK (megakaryoblastic cell line), SU-DHL-4 (GCB-diffuse large B cell lymphoma), KG1 (AML), Mec-1 (chronic B-cell leukemia), MOLM-16 (AML), Jeko (B-cell lymphoma), WSU-DLCL2 (B-cell lymphoma), JJN3 (plasma cell leukemia), SU-DHL-6 (GCB-diffuse large B cell lymphoma), and Z-138 (mantle cell lymphoma). In addition, two murine cell lines were tested: A20 […].

[2] = target: T1, Full-length phosphorylated PDK1 (Homo sapiens, UniProt O15530); experiment: Fluorescence polarization PIF-tide binding assay; settings: PDK1 saturating amounts of compound, FIG. 13C
T1 sequence (O15530 1-556): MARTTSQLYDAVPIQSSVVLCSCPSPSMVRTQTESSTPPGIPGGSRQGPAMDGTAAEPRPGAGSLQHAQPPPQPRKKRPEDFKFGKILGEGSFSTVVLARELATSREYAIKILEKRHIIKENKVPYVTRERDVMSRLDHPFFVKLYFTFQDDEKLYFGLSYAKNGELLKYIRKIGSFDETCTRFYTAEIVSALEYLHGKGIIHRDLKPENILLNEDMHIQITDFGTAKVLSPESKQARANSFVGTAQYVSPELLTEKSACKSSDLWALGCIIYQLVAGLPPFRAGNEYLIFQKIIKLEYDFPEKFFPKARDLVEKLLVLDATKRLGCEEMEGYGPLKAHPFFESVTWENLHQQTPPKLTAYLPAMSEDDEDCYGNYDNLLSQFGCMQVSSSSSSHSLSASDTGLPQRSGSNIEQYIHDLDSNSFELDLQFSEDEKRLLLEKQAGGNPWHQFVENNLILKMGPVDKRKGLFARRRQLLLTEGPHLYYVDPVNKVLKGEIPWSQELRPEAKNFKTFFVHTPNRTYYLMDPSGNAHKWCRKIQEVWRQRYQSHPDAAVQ

U-2932 = experiment: MTS cell proliferation assay, U-2932; assay type: cell-based; settings: Homo sapiens, U2932; U-2932, 72 hr
Method: as §1

Molm-13 = experiment: MTS cell proliferation assay, Molm-13; assay type: cell-based; settings: Homo sapiens; Molm-13, 72 hr
Method: as §1

Mec-1 = experiment: MTS cell proliferation assay, Mec-1; assay type: cell-based; settings: Homo sapiens, MEC1; Mec-1, 72 hr
Method: (§2) Cell proliferation was measured using the CellTiter 96 Aqueous Non-Radioactive Cell Proliferation Assay (Promega). The CellTiter 96® AQueous Assay is composed of solutions of a tetrazolium compound [3-(4,5-dimethylthiazol-2-yl)-5-(3-carboxymethoxyphenyl)-2-(4-sulfophenyl)-2H-tetrazolium, inner salt; MTS] and an electron coupling reagent (phenazine methosulfate) PMS. MTS is bioreduced by cells into a formazan product that is soluble in tissue culture medium. The absorbance of the formazan product at 490 nm can be measured directly from assay plates without additional processing. The quantity of formazan product as measured by the amount of 490 nm absorbance is directly proportional to the number of living cells in culture. Cells were seeded into 96-well or 384-well clear plates in a volume of 200 μL (96-well) or 50 μL (384-well) at optimized densities ranging from 1,000 to 40,000 cells per well for 96-well plates or 1,200 to 25,000 cells per well for 384-well plates depending on cell-line. After 4-6 hr recovery, serially diluted compounds in DMSO were added to the cells using (0.1% v/v final DMSO concentration). Cells were then grown at 37° C. in a humidified incubator with 5% CO2 for 72 hr. A 20:1 [3-(4,5-dimethylthiazol-2-yl)-5-(3-carboxymethoxyphenyl)-2-(4-sulfophenyl)-2H-tetrazolium](MTS):phenazine methosulfate (PMS) solution in DPBS was made immediately before use, added to each well, and cells were incubated for 1.5 hr at 37° C. The absorbance at 490 nm was then measured using a platereader. Absorbance values were normalized as percent of control (cells incubated in the presence of 0.1% v/v DMSO). Sigmoidal dose-response curves were plotted using log(inhibitor) vs. response—Variable slope (four parameters) model with a top value constrained to 100% (GraphPad Prism version 6.00 for Windows, GraphPad Software, La Jolla California USA). […] Curves for compounds that reached a plateau were matched exactly to the measurement points. […]

Z-138 = experiment: MTS cell proliferation assay, Z-138; assay type: cell-based; settings: Homo sapiens; Z-138, 72 hr
Method: as §2

Jeko = experiment: MTS cell proliferation assay, Jeko; assay type: cell-based; settings: Homo sapiens, 72 hr
Method: as §1

SU-DHL-4 = experiment: MTS cell proliferation assay, SU-DHL-4; assay type: cell-based; settings: Homo sapiens; SU-DHL-4, 72 hr
Method: as §2

SU-DHL-6 = experiment: MTS cell proliferation assay, SU-DHL-6; assay type: cell-based; settings: Homo sapiens; SU-DHL-6, 72 hr
Method: as §2

MOLM-16 = experiment: MTS cell proliferation assay, MOLM-16; assay type: cell-based; settings: Homo sapiens, MOLM16; MOLM-16, 72 hr
Method: as §2

WSU-DLCL2 = experiment: MTS cell proliferation assay, WSU-DLCL2; assay type: cell-based; settings: Homo sapiens, WSUDLCL2; WSU-DLCL2, 72 hr
Method: as §2

MV4-11 = experiment: MTS cell proliferation assay, MV4-11; assay type: cell-based, human; settings: Homo sapiens; MV4-11, 72 hr; read-out: MTS proliferation assay
Method: Cell proliferation was measured using the CellTiter 96 Aqueous Non-Radioactive Cell Proliferation Assay (Promega). […] MTS is bioreduced by cells into a formazan product that is soluble in tissue culture medium. The absorbance of the formazan product at 490 nm can be measured directly from assay plates without additional processing. The quantity of formazan product as measured by the amount of 490 nm absorbance is directly proportional to the number of living cells in culture. Cells were seeded into 96-well or 384-well clear plates in a volume of 200 μL (96-well) or 50 μL (384-well) at optimized densities ranging from 1,000 to 40,000 cells per well for 96-well plates or 1,200 to 25,000 cells per well for 384-well plates depending on cell-line. After 4-6 hr recovery, serially diluted compounds in DMSO were added to the cells using (0.1% v/v final DMSO concentration). Cells were then grown at 37° C. in a humidified incubator with 5% CO2 for 72 hr. A 20:1 [3-(4,5-dimethylthiazol-2-yl)-5-(3-carboxymethoxyphenyl)-2-(4-sulfophenyl)-2H-tetrazolium](MTS):phenazine methosulfate (PMS) solution in DPBS was made immediately before use, added to each well, and cells were incubated for 1.5 hr at 37° C. The absorbance at 490 nm was then measured using a platereader. Absorbance values were normalized as percent of control (cells incubated in the presence of 0.1% v/v DMSO). Sigmoidal dose-response curves were plotted using log(inhibitor) vs. response—Variable slope (four parameters) model with a top value constrained to 100% (GraphPad Prism version 6.00 for Windows, GraphPad Software, La Jolla California USA). […] To determine potential of compounds of the invention to affect viability of hematological cancers, cell lines representing various tumor types were selected and tested. […] In addition, two murine cell lines were tested: A20 […].

RPMI-8226 = experiment: MTS cell proliferation assay, RPMI-8226; assay type: cell-based; settings: Homo sapiens; RPMI-8226, 72 hr
Method: as §1

U-266 = experiment: MTS cell proliferation assay, U-266; assay type: cell-based; settings: Homo sapiens; U-266, 72 hr
Method: as §2

CMK = experiment: MTS cell proliferation assay, CMK; assay type: cell-based; settings: Homo sapiens, 72 hr
Method: as §2

U-937 = experiment: MTS cell proliferation assay, U-937; assay type: cell-based; settings: Homo sapiens; U-937, 72 hr
Method: as §2

KG1 = experiment: MTS cell proliferation assay, KG1; assay type: cell-based; settings: Homo sapiens, KG-1; KG1, 72 hr
Method: as §2

JJN3 = experiment: MTS cell proliferation assay, JJN3; assay type: cell-based; settings: Homo sapiens, JJN-3; JJN3, 72 hr
Method: as §2

Structure (SMILES) | plateau of growth inhibition curve at higher concentrations ([1]; 72 hrs, percent of control) [%] | PIF-tide binding to PDK1 (fluorescence polarization, words) [2] | EC50 (U-2932) [nM] | EC50 (Molm-13) [nM] | EC50 (Mec-1) [nM] | EC50 (Z-138) [nM] | EC50 (Jeko) [nM] | EC50 (SU-DHL-4) [nM] | EC50 (SU-DHL-6) [nM] | EC50 (MOLM-16) [nM] | EC50 (WSU-DLCL2) [nM] | EC50 ([1]; range against the various cell lines of Table 1, read-out: inhibition of cell proliferation EC50) [nM] | EC50 (MV4-11) [nM] | EC50 (RPMI-8226) [nM] | EC50 (U-266) [nM] | EC50 (CMK) [nM] | EC50 (U-937) [nM] | EC50 (KG1) [nM] | EC50 (JJN3) [nM]
COc1cccc2c1C(=O)c1c(O)c3c(c(O)c1C2=O)C[C@@](O)(C(=O)CO)C[C@@H]3O[C@H]1C[C@H](N)[C@H](O)[C@H](C)O1 [doxorubicin, reference compound] | < 20 |  |  |  |  |  |  |  |  |  |  |  |  |  |  |  |  |  | 
O=C(NCCCNc1nc(Nc2cccc(NC(=O)N3CCCC3)c2)ncc1I)c1cccs1 [BX-795, reference compound] |  | no interference with PIF-tide binding |  |  |  |  |  |  |  |  |  |  |  |  |  |  |  |  | 
C[C@H](NC(=O)c1nc(C#N)cnc1NCc1ccc(-c2cnc3[nH]nc(N)c3c2)cc1)c1ccc(F)c(F)c1 [Compound 3, 3-[4-(3-Amino-1H-pyrazolo[3,4-b]pyridin-5-yl)-benzylamino]-6-cyano-pyrazine-2-carboxylic acid [1-(3,4-difluoro-phenyl)-ethyl]-amide] |  | significant inhibition of PIF-tide binding | 115 | 5 | 403 | 754 | 249 | 411 | 458 | 291 | 474 | 3 to 853 | 12 | 201 | 145 | 278 | 111 | 193 | 853
